Results reported in ChEMBL document CHEMBL1201862, “PubChem BioAssay data set” (2004).
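Assay format: 96-well plates, 48-hour exposure. At the GI50, growth is halved.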 Calls of active or inactive are those of the source. Cut-off read from the data, not from the text of the source: active = GI50 up to about 1.1 µM and inactive = higher.

How the values were obtained:
Assay in all cases: NCI-60 cell line screen, 48 h
[1] = test system: A498
[2] = test system: A549
[3] = test system: CAKI-1
[4] = test system: CCRF-CEM
[5] = test system: COLO 205
[6] = test system: DLD-1
[7] = test system: DMS-114
[8] = test system: DMS-273
[9] = test system: EKVX
[10] = test system: HCC 2998
[11] = test system: HCT-116
[12] = test system: HCT-15
[13] = test system: HL-60
[14] = test system: HOP-18
[15] = test system: HOP-62
[16] = test system: HOP-92
[17] = test system: HT-29
[18] = test system: IGROV-1
[19] = test system: K562
[20] = test system: KM-20L2
[21] = test system: LOX IMVI
[22] = test system: M19-MEL
[23] = test system: MCF7
[24] = test system: MOLT-4
[25] = test system: Malme-3M
[26] = test system: NCI-H23
[27] = test system: NCI-H460
[28] = test system: NCI-H522
[29] = test system: NCI/ADR-RES
[30] = test system: OVCAR-3
[31] = test system: OVCAR-4
[32] = test system: OVCAR-5
[33] = test system: OVCAR-8
[34] = test system: RPMI-8226
[35] = test system: RXF 393
[36] = test system: SF-268
[37] = test system: SF-295
[38] = test system: SF-539
[39] = test system: SK-MEL-28
[40] = test system: SK-MEL-2
[41] = test system: SK-MEL-5
[42] = test system: SK-OV-3
[43] = test system: SN12C
[44] = test system: SNB-19
[45] = test system: SNB-75
[46] = test system: SNB-78
[47] = test system: SW-620
[48] = test system: U-251
[49] = test system: UACC-257
[50] = test system: UACC-62
[51] = test system: UO-31
[52] = test system: XF498
[53] = test system: 786-0
[54] = test system: ACHN
[55] = test system: KM12
[56] = test system: LXFL 529
[57] = test system: M14
[58] = test system: NCI-H226
[59] = test system: TK-10

`O=C(O)C1Cc2c([nH]c3ccccc23)C=N1` (centres undefined) was tested, and the GI50 [1] was > 100 µM (inactive), the GI50 [2] was > 100 µM (inactive) and the GI50 [3] was > 100 µM (inactive). The GI50 [4] was > 100 µM (inactive), the GI50 [5] was > 100 µM (inactive) and the GI50 [6] was > 100 µM (inactive). The GI50 [7] was > 100 µM (inactive), the GI50 [8] was > 100 µM (inactive) and the GI50 [9] was > 100 µM (inactive). For the same compound, the GI50 [10] was > 100 µM (inactive), the GI50 [11] was > 100 µM (inactive) and the GI50 [12] was over 100 µM. The GI50 [13] was > 100 µM (inactive), the GI50 [14] was 30.3 µM (inactive) and the GI50 [15] was > 100 µM (inactive). For the same compound, the GI50 [16] was > 74.1 µM (inactive), the GI50 [17] was > 100 µM (inactive) and the GI50 [18] was > 100 µM (inactive). For the same compound, the GI50 [19] was > 100 µM (inactive), the GI50 [20] was > 100 µM (inactive) and the GI50 [21] was > 100 µM (inactive). The GI50 [22] was > 100 µM (inactive), the GI50 [23] was > 100 µM (inactive) and the GI50 [24] was > 100 µM (inactive). For the same compound, the GI50 [25] was > 100 µM (inactive), the GI50 [26] was > 100 µM (inactive) and the GI50 [27] was > 100 µM (inactive). For the same compound, the GI50 [28] was > 100 µM (inactive), the GI50 [29] was > 100 µM (inactive) and the GI50 [30] was > 100 µM (inactive). For the same compound, the GI50 [31] was > 100 µM (inactive), the GI50 [32] was > 100 µM (inactive) and the GI50 [33] was > 100 µM (inactive). For the same compound, the GI50 [34] was > 100 µM (inactive), the GI50 [35] was > 100 µM (inactive) and the GI50 [36] was > 100 µM (inactive). For the same compound, the GI50 [37] was > 100 µM (inactive), the GI50 [38] was > 100 µM (inactive) and the GI50 [39] was > 100 µM (inactive). The GI50 [40] was > 100 µM (inactive), the GI50 [41] was > 100 µM (inactive) and the GI50 [42] was > 100 µM (inactive). The GI50 [43] was > 100 µM (inactive), the GI50 [44] was > 100 µM (inactive) and the GI50 [45] was > 100 µM (inactive). For the same compound, the GI50 [46] was > 100 µM (inactive), the GI50 [47] was > 100 µM (inactive) and the GI50 [48] was > 100 µM (inactive). For the same compound, the GI50 [49] was > 100 µM (inactive), the GI50 [50] was > 100 µM (inactive) and the GI50 [51] was > 100 µM (inactive). For the same compound, the GI50 [52] was > 100 µM (inactive).
For `N#CNC1=NC(CCCC(=O)Nc2cccc([N+](=O)[O-])c2)=C(c2nc3ccccc3[nH]2)C(N)N1` (centres undefined), the GI50 [53] was > 100 µM (inactive), the GI50 [2] was > 100 µM (inactive) and the GI50 [54] was > 100 µM (inactive). The GI50 [3] was > 100 µM (inactive), the GI50 [4] was > 100 µM (inactive) and the GI50 [5] was > 100 µM (inactive). The GI50 [6] was > 100 µM (inactive), the GI50 [7] was > 100 µM (inactive) and the GI50 [8] was > 100 µM (inactive). For the same compound, the GI50 [9] was > 100 µM (inactive), the GI50 [10] was > 100 µM (inactive) and the GI50 [12] was 76.7 µM. The GI50 [13] was > 100 µM (inactive), the GI50 [14] was 64.9 µM (inactive) and the GI50 [15] was > 100 µM (inactive). For the same compound, the GI50 [17] was > 100 µM (inactive), the GI50 [18] was > 100 µM (inactive) and the GI50 [19] was > 100 µM (inactive). For the same compound, the GI50 [20] was > 100 µM (inactive), the GI50 [55] was > 100 µM (inactive) and the GI50 [21] was > 100 µM (inactive). For the same compound, the GI50 [56] was > 100 µM (inactive), the GI50 [57] was > 100 µM (inactive) and the GI50 [22] was > 100 µM (inactive). The GI50 [24] was > 100 µM (inactive), the GI50 [25] was > 100 µM (inactive) and the GI50 [58] was > 100 µM (inactive). The GI50 [26] was > 100 µM (inactive), the GI50 [27] was > 100 µM (inactive) and the GI50 [28] was > 100 µM (inactive). For the same compound, the GI50 [30] was > 100 µM (inactive), the GI50 [31] was > 100 µM (inactive) and the GI50 [32] was > 100 µM (inactive). For the same compound, the GI50 [33] was > 100 µM (inactive), the GI50 [34] was > 100 µM (inactive) and the GI50 [35] was > 100 µM (inactive). For the same compound, the GI50 [36] was > 100 µM (inactive), the GI50 [37] was > 100 µM (inactive) and the GI50 [38] was > 100 µM (inactive). For the same compound, the GI50 [39] was > 100 µM (inactive), the GI50 [40] was > 100 µM (inactive) and the GI50 [41] was > 100 µM (inactive). The GI50 [42] was > 100 µM (inactive), the GI50 [43] was > 100 µM (inactive) and the GI50 [44] was > 100 µM (inactive). For the same compound, the GI50 [45] was > 100 µM (inactive), the GI50 [47] was > 100 µM (inactive) and the GI50 [59] was > 100 µM (inactive). The GI50 [49] was > 100 µM (inactive), the GI50 [50] was > 100 µM (inactive) and the GI50 [51] was > 100 µM (inactive). For the same compound, the GI50 [52] was > 100 µM (inactive).
